Measured values reported in ChEMBL document CHEMBL1201862, “PubChem BioAssay data set” (2004).
The source made the active and inactive calls.

Experiments:
[1] = target: Peroxisome proliferator-activated receptor gamma/Nuclear receptor coactivator 1 (Homo sapiens, UniProt P37231); experiment: (§1) TR-FRET dose response biochemical High Throughput Screening assay for agonists of the steroid receptor coactivator 1 (SRC-1) recruitment by the peroxisome proliferator-activated receptor gamma (PPAR gamma): non-selective agonists. [Related pubchem assays (depositor defined):AID1300, AID1808, AID504735, AID631]; format: protein assay
[2] = target: Peroxisome proliferator-activated receptor gamma/Nuclear receptor coactivator 3 (Homo sapiens, UniProt P37231); experiment: as §1, with “3 (SRC-3)” for “1 (SRC-1)”, “assays: 1301 (Confirmation screen.), 1048 (Primary screen.)]” for “assays (depositor defined):AID1300, AID1808, AID504735, AID631]”; format: functional
[3] = target: Peroxisome proliferator-activated receptor gamma/Nuclear receptor coactivator 2 (Homo sapiens, UniProt P37231); experiment: TR-FRET dose response biochemical High Throughput Screening assay for agonists of the steroid receptor coactivator 2 (SRC-2) recruitment by the peroxisome proliferator-activated receptor gamma (PPAR gamma): non-selective agonists. [Related pubchem assays: 1297, 1032 ]; format: functional
[4] = Luminescence Cell-Based Dose Retest to Confirm Inhibitors of Cancer Stem Cells. [Related pubchem assays (depositor defined):AID2717, AID2721]; format: functional, Homo sapiens; conditions: Homo sapiens
[5] = target: Nonstructural protein 1 (Influenza A virus, UniProt Q194T2); format: functional, Influenza A virus (A/California/07/2009(H1N1))
Nonstructural protein 1, sequence (Q194T2 whole entry): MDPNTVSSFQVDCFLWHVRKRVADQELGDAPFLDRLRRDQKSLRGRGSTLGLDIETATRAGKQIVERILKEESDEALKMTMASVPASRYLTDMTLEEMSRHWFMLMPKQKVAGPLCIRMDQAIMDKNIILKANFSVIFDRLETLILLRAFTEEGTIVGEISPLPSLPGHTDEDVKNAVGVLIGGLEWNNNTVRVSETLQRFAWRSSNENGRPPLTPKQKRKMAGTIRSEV

[6] = viability loss of HMLE_sh_eGFP cells – cell-based, luminescence, counter-screen for HMLE_sh_ECad selective toxicity project, dose response (AID 463074); format: functional, Homo sapiens;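 also: HMLE human mammary epithelial cells expressing control shRNA against eGFP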
[7] = target: T1, Rac GTPase-activating protein 1 (Homo sapiens, UniProt Q9H0H5); experiment: blockers of MgcRacGAP-driven Rac1 GTP hydrolysis – biochemical, ADP Hunter fluorescence, primary and confirmatory, confirmation (AID 624330); format: functional
T1 sequence (Q9H0H5 whole entry): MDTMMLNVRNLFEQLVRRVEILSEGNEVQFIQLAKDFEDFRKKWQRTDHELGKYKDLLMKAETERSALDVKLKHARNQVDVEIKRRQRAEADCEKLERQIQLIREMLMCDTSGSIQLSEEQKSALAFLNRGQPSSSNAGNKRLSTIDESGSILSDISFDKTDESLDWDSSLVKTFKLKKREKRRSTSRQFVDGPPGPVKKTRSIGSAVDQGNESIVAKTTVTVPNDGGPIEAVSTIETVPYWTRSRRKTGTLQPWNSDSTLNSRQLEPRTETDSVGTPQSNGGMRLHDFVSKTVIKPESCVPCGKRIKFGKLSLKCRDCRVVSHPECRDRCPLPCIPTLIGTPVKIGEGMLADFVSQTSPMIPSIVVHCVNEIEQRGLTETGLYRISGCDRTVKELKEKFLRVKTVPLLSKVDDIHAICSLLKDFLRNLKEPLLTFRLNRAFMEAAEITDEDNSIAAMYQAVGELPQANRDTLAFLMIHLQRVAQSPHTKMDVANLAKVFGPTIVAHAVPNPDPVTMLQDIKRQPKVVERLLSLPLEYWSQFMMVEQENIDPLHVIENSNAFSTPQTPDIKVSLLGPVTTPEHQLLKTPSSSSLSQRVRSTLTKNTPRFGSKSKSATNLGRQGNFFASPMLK

[8] = bead-based luminescence quenchers, dual-tagged ARNT – biochemical, AlphaScreen, cherry-pick, artefact control for ARNT-TACC3 interaction inhibitor project, dose response (AID 651705); format: functional;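 also: AlphaScreen bead proximity signal that flags compounds interfering with the detection technology; potency reflects signal decrease which marks the compound as an assay artifact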
[9] = target: Bcl-2-related protein A1 (Mus musculus, UniProt Q07440); format: functional;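 also: confirmatory dose–response counterscreen on Bfl-1, used to check hits from a UBC13 polyubiquitin inhibitor campaign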
Bcl-2-related protein A1, sequence (Q07440 whole entry): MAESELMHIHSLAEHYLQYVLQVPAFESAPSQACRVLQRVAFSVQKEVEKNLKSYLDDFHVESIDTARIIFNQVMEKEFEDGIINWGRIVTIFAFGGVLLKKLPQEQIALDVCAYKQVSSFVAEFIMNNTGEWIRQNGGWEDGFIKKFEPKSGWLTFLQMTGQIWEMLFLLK

[10] = target: T2, Ubiquitin-conjugating enzyme E2 N (Homo sapiens, UniProt P61088); format: functional
T2 sequence (P61088 whole entry): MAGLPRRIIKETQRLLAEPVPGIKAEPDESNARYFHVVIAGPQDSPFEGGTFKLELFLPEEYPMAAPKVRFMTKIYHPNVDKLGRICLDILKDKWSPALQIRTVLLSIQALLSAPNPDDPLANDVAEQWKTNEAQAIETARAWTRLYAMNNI

[11] = target: T3, DNA repair protein RAD52 homolog (Homo sapiens, UniProt P43351); format: functional, biochemical
T3 sequence (P43351 whole entry): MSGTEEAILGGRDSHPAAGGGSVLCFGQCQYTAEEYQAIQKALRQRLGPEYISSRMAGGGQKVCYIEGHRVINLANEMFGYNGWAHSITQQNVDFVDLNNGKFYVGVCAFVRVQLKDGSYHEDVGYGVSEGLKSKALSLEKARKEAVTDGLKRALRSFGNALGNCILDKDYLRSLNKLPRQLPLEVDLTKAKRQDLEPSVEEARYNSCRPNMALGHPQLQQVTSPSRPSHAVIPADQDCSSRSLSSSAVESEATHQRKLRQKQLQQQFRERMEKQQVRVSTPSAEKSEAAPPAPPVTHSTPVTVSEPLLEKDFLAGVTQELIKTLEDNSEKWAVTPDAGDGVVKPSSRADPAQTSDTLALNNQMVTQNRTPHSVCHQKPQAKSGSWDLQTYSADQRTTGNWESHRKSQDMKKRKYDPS

[12] = system: Escherichia coli; experiment: microbe, parasite or virus in culture
[13] = target: Exodeoxyribonuclease V (Escherichia coli (strain K12), UniProt P04993+P07648+P08394); experiment: RecBCD inhibition via phage-restricted bacterial growth – absorbance, V66 E. coli, mutant T4 phage, counter-screen for AddAB inhibitor project, dose response (AID 492957); format: functional, cell-based, Escherichia coli str. K-12 substr. MG1655
Exodeoxyribonuclease V, sequence (P04993 whole entry): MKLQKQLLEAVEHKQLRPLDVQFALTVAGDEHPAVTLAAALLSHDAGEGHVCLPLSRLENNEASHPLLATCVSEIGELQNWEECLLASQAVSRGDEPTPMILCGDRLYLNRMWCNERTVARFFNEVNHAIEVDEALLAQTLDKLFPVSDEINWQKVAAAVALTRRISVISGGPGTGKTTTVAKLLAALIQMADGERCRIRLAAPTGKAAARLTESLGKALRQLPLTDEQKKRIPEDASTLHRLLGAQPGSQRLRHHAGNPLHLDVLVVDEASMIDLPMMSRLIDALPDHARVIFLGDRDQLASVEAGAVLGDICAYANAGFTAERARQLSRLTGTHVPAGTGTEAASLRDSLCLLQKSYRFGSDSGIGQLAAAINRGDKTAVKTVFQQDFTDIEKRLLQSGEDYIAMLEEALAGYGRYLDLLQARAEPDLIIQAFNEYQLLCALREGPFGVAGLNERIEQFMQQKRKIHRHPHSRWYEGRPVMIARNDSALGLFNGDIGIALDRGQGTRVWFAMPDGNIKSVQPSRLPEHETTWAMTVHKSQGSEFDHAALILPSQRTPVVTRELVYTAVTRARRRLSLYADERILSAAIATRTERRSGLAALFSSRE
Exodeoxyribonuclease V, sequence (P07648 whole entry): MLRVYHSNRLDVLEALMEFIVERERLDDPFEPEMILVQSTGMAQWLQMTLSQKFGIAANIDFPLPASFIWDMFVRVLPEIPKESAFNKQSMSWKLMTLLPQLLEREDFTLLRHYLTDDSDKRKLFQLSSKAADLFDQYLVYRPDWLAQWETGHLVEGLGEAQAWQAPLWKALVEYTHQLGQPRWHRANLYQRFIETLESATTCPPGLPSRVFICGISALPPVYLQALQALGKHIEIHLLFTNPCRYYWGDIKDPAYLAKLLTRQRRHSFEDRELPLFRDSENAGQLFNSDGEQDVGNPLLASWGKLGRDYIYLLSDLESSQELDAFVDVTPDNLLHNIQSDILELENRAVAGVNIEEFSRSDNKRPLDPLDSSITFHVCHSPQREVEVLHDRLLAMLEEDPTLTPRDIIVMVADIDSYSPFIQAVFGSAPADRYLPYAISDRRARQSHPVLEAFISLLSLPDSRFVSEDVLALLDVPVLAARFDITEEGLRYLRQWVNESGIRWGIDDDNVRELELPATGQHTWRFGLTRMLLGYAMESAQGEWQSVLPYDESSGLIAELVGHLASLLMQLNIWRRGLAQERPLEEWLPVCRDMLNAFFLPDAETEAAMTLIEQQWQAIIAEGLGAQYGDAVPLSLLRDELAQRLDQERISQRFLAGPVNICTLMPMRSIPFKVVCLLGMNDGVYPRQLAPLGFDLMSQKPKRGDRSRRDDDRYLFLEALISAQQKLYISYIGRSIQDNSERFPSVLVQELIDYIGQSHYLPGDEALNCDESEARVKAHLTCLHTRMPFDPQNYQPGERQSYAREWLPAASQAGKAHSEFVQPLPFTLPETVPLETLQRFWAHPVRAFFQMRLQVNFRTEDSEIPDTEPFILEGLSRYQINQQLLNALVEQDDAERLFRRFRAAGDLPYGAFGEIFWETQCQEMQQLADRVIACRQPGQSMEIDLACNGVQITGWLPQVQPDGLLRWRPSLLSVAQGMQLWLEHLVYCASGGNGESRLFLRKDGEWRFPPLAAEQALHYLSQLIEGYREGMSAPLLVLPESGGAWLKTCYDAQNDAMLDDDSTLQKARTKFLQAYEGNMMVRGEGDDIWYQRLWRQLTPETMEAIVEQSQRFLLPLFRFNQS
Exodeoxyribonuclease V, sequence (P08394 whole entry): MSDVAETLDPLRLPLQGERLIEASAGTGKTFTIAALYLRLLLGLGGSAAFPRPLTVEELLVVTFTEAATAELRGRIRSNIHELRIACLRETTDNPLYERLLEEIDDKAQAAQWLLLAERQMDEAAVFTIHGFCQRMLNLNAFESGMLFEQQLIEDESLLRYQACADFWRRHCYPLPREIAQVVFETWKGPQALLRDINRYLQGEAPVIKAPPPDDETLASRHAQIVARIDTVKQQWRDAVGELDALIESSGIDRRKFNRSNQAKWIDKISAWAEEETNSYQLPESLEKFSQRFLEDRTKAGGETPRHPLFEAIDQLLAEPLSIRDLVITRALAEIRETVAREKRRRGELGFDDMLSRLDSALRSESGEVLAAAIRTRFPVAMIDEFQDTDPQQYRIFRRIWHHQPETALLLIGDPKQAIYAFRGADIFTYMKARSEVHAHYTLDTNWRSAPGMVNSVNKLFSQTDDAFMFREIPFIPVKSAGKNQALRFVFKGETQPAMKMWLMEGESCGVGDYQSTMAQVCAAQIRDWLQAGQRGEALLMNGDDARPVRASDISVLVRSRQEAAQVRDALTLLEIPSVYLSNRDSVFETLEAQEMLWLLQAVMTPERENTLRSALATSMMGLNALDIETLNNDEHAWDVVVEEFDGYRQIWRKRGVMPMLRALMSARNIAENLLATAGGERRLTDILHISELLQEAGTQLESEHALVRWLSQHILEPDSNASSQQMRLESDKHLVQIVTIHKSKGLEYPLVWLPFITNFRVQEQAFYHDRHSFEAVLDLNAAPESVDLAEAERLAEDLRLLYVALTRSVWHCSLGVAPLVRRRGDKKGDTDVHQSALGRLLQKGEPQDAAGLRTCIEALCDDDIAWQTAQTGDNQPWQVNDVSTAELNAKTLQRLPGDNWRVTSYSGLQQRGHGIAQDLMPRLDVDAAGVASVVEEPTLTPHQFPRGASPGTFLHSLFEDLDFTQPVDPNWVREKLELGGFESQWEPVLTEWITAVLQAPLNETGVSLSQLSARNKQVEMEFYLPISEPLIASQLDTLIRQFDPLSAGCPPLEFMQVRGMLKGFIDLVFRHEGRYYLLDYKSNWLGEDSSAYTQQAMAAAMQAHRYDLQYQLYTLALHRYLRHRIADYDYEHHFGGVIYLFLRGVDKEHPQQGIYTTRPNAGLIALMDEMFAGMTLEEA

[14] = Counterscreen for AddAB inhibitors: absorbance-based bacterial cell-based high throughput dose response assay for inhibitors of bacterial viability. [Related pubchem assays (depositor defined):AID435030, AID449728, AID449731, AID488942, AID488955, AID488956]; format: functional
[15] = system: INS1; experiment: INS-1E survival protection against cytokine death – cell-based, luminescence, retest, dose response (AID 449756); format: functional; conditions: Rattus norvegicus;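 also: cell death triggered by IL-1 beta plus TNF-alpha plus IFN-gamma mixture; protective hits raise ATP signal compared with cytokine alone wells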
[16] = target: Fructose-bisphosphate aldolase (Mycobacterium tuberculosis, UniProt P9WQA3); experiment: Fluorescence-based biochemical high throughput dose response assay for inhibitors of the fructose-bisphosphate aldolase (FBA) of M. tuberculosis.; format: functional
Fructose-bisphosphate aldolase, sequence (P9WQA3 whole entry): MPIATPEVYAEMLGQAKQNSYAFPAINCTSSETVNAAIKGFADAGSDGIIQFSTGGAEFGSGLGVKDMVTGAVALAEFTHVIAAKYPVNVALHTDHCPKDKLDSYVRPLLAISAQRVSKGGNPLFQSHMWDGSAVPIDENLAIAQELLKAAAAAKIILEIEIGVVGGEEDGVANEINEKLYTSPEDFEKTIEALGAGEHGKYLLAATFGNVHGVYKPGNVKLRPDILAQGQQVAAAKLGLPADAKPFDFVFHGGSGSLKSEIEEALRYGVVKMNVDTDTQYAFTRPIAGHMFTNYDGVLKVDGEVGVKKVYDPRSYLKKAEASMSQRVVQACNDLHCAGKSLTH

Cn1c(=O)cc(SCC(=O)N2CCCC2)c2ccc(Cl)cc21
EC50 [1]: > 79.4 µM (inactive)
EC50 [2]: > 79.4 µM (not active)
EC50 [3]: > 79.4 µM (not active)

O=C(Cn1cnc([N+](=O)[O-])n1)N/N=C/c1ccc(O)cc1O
AC50 [4]: 19.3 µM (active)
IC50 [5]: 10.9 µM (active)
AC50 [6]: 20.8 µM (active)
IC50 [7]: 107 µM (active)
AC50 [8]: 102 µM (active)

C[C@]12CC[C@H](O)C[C@@H]1CC[C@@H]1[C@@H]2CC[C@]2(C)[C@@H](OC(=O)[C@H](N)CCCCN)CC[C@@H]12
IC50 [9]: > 20 µM (inactive)
IC50 [10]: 11.8 µM (active)
AC50 [11]: 1.27 µM (active)

O=C(O)CN1C(=O)CC(Cc2ccc(Cl)cc2)C1=O (stereo not drawn)
AC50 [12]: 106 µM (active)

O=C(OCC(=O)c1cccs1)c1ccc([N+](=O)[O-])o1
IC50 [13]: > 119 µM (inactive)
IC50 [14]: 92.6 µM (inactive)

Cc1ccc2nc(-c3ccc(-c4cccc(Cl)c4)cc3)c(NCc3ccccc3)n2c1
AC50 [4]: 4.96 µM (active)
AC50 [6]: 24 µM (active)
AC50 [15]: 2.29 µM (active)
IC50 [16]: 0.848 µM (active)
